Test results taken from ChEMBL document CHEMBL1932965, “Synthesis and SAR of inhibitors of protein kinase CK2: novel tricyclic quinoline analogs” (Bioorg Med Chem Lett, 2012).

target: Casein kinase II alpha/beta (Homo sapiens, UniProt P68400); assay: Inhibition of human recombinant CK2alpha/CK2beta using RRRDDDSDDD peptide as substrate by radiometric assay; type: protein-complex assay
Sequence (P68400 whole entry, looked up): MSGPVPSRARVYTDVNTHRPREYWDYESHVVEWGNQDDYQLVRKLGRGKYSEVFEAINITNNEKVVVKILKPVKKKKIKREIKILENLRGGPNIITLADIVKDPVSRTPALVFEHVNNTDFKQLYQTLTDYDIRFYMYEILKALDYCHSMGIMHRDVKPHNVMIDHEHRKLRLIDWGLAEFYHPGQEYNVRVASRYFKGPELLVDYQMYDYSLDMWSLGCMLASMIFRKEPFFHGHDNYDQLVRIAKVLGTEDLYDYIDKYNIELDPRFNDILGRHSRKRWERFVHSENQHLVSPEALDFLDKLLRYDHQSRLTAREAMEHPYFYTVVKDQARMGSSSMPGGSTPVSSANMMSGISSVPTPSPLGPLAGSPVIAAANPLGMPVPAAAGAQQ

Row | SMILES | IC50 [nM]
1 | O=C(O)c1ccc2c(c1)nc(-c1ccccc1)c1ccncc12 | 1.1
2 | O=C(O)c1ccc2c(c1)nc(-c1cccnc1)c1ccncc12 | > 2500
3 | O=C(O)c1ccc2c(c1)nc(-c1cccc(F)c1)c1ccncc12 | 1.3
4 | COc1cccc(-c2nc3cc(C(=O)O)ccc3c3cnccc23)c1 | 34
5 | O=C(O)c1ccc2c(c1)nc(-c1cccc(OC(F)(F)F)c1)c1ccncc12 | 5.7
6 | CS(=O)(=O)c1cccc(-c2nc3cc(C(=O)O)ccc3c3cnccc23)c1 | 13
7 | NS(=O)(=O)c1cccc(-c2nc3cc(C(=O)O)ccc3c3cnccc23)c1 | 11
8 | Cc1ccccc1-c1nc2cc(C(=O)O)ccc2c2cnccc12 | 20
9 | O=C(O)c1ccc2c(c1)nc(-c1ccccc1F)c1ccncc12 | 15
10 | O=C(O)c1ccc2c(c1)nc(-c1cccc(O)c1)c1ncncc12 | 3.5
11 | O=C(O)c1ccc2c(c1)nc(-c1ccccc1)c1nc(NC3CC3)ncc12 | 0.6
12 | CCNc1ncc2c(n1)c(-c1ccc(Cl)cc1)nc1cc(C(=O)O)ccc12 | 0.5
13 | O=C(O)c1ccc2c(c1)nc(-c1ccsc1)c1ccncc12 | 0.5
14 | Cc1cscc1-c1nc2cc(C(=O)O)ccc2c2cnccc12 | 4.2
15 | COC(=O)c1ccc2c(c1)nc(-c1ccc(Cl)cc1)c1ccncc12 | 395
16 | O=C(O)c1ccc2nc(-c3ccc(Cl)cc3)c3ccncc3c2c1 | 164
17 | O=C(O)c1cccc2c1nc(-c1ccc(Cl)cc1)c1ccncc12 | 2030
18 | O=C(O)c1ccc2c(c1)nc(Cc1cccc(Cl)c1)c1ccncc12 | 2.1

Next, values leading:

Row | IC50 [nM] | SMILES
19 | 35 | O=C(O)c1ccc2c(c1)nc(-c1ccncc1)c1ccncc12
20 | 2.9 | O=C(O)c1ccc2c(c1)nc(-c1cccc(Cl)c1)c1ccncc12
21 | 2.7 | Nc1cccc(-c2nc3cc(C(=O)O)ccc3c3cnccc23)c1
22 | 1 | O=C(O)c1ccc2c(c1)nc(-c1cccc(O)c1)c1ccncc12
23 | 3.5 | NC(=O)c1cccc(-c2nc3cc(C(=O)O)ccc3c3cnccc23)c1
24 | 0.5 | O=C(O)c1ccc2c(c1)nc(-c1ccc(Cl)cc1)c1ccncc12
25 | 1.2 | O=C(O)c1ccc2c(c1)nc(-c1ccc(F)cc1)c1ccncc12
26 | 39 | O=C(O)c1ccc2c(c1)nc(-c1ccccc1OC(F)(F)F)c1ccncc12
27 | 12 | O=C(O)c1ccc2c(c1)nc(-c1ccc(Cl)cc1)c1ncncc12
28 | 17 | NC(=O)c1cccc(-c2nc3cc(C(=O)O)ccc3c3cncnc23)c1
29 | 0.4 | O=C(O)c1ccc2c(c1)nc(-c1ccc(Cl)s1)c1ccncc12
30 | 30 | NC(=O)c1ccc2c(c1)nc(-c1ccc(Cl)cc1)c1ccncc12
31 | 444 | CONC(=O)c1ccc2c(c1)nc(-c1ccc(Cl)cc1)c1ccncc12
32 | > 2500 | N#Cc1ccc2c(c1)nc(-c1ccc(Cl)cc1)c1ccncc12
33 | 20 | Clc1ccc(-c2nc3cc(-c4nnn[nH]4)ccc3c3cnccc23)cc1
34 | 8.9 | CN(c1cccc(Cl)c1)c1nc2cc(C(=O)O)ccc2c2cnccc12
35 | 3.7 | O=C(O)c1ccc2c(c1)nc(Oc1cccc(Cl)c1)c1ccncc12
36 | 1 | O=C(O)c1ccc2c(c1)nc(Sc1cccc(Cl)c1)c1ccncc12
